In PubChem BioAssay AID248 (DTP/NCI, 2004):
Toxic doses and inconclusive results are not listed. Cut-off read from the data, not from the text of the source: active = T/C of 150% or more; inactive = T/C below 125%. Peptide text beside a SMILES is read from it.

Test system: L1210 leukemia ip in BDF1 mice, survival T/C
Assay: NCI In Vivo Anticancer Drug Screen. Data for tumor model L1210 Leukemia (intraperitoneal) in B6D2F1 (BDF1) mice
Conditions: endpoint: mean survival time, higher = longer survival
Procedure, shortened: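 Mice bearing the transplanted tumor received compound or vehicle. Survival of the treated group was divided by that of the vehicle-treated control group to give the ratio.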

[1] = dose: 50.0 mg/kg/injection, schedule: Q01DX009 (ip), vehicle: saline with Tween-80
[2] = dose: 100.0 mg/kg/injection, schedule: Q01DX009 (ip), vehicle: saline with Tween-80
[3] = dose: 100.0 mg/kg/injection, schedule: Q04DX003 (ip), vehicle: saline with Tween-80
[4] = dose: 200.0 mg/kg/injection, schedule: Q04DX003 (ip), vehicle: saline with Tween-80
[5] = dose: 100.0 mg/kg/injection, schedule: Q01DX009 (ip), vehicle: Klucel (hydroxypropylcellulose) (HPC)
[6] = dose: 100.0 mg/kg/injection, schedule: Q04DX003 (ip), vehicle: Klucel (hydroxypropylcellulose) (HPC)
[7] = dose: 200.0 mg/kg/injection, schedule: Q04DX003 (ip), vehicle: Klucel (hydroxypropylcellulose) (HPC)
[8] = dose: 400.0 mg/kg/injection, schedule: Q04DX003 (ip), vehicle: Klucel (hydroxypropylcellulose) (HPC)
[9] = dose: 100.0 mg/kg/injection, schedule: Q01DX009 (ip), vehicle: saline
[10] = dose: 200.0 mg/kg/injection, schedule: Q01DX009 (ip), vehicle: saline
[11] = dose: 400.0 mg/kg/injection, schedule: Q01DX009 (ip), vehicle: saline
[12] = dose: 100.0 mg/kg/injection, schedule: Q04DX002 (ip), vehicle: Klucel (hydroxypropylcellulose) (HPC)
[13] = dose: 200.0 mg/kg/injection, schedule: Q04DX002 (ip), vehicle: Klucel (hydroxypropylcellulose) (HPC)
[14] = dose: 400.0 mg/kg/injection, schedule: Q04DX002 (ip), vehicle: Klucel (hydroxypropylcellulose) (HPC)
[15] = dose: 100.0 mg/kg/injection, schedule: Q01DX001 (ip), vehicle: saline
[16] = dose: 200.0 mg/kg/injection, schedule: Q01DX001 (ip), vehicle: saline
[17] = dose: 400.0 mg/kg/injection, schedule: Q01DX001 (ip), vehicle: saline
[18] = dose: 25.0 mg/kg/injection, schedule: Q01DX009 (ip), vehicle: Klucel (hydroxypropylcellulose) (HPC)
[19] = dose: 200.0 mg/kg/injection, schedule: Q01DX009 (ip), vehicle: saline with Tween-80
[20] = dose: 25.0 mg/kg/injection, schedule: Q04DX002 (ip), vehicle: Klucel (hydroxypropylcellulose) (HPC)
[21] = dose: 50.0 mg/kg/injection, schedule: Q04DX002 (ip), vehicle: Klucel (hydroxypropylcellulose) (HPC)

Measured: T/C

NC(=O)c1ccccc1C(Cl)(Cl)Cl
inactive: [1] 88 % of control | [2] 89 % of control | [3] 104 % of control | [4] 96 % of control

COc1ccc2ccccc2c1-c1c([N+](=O)[O-])ccc2ccccc12
inactive: dose: 12.5 mg/kg/injection, schedule: Q04DX002 (ip), vehicle: saline with Tween-80 97 % of control | dose: 25.0 mg/kg/injection, schedule: Q04DX002 (ip), vehicle: saline with Tween-80 90 % of control | dose: 50.0 mg/kg/injection, schedule: Q04DX002 (ip), vehicle: saline with Tween-80 87 % of control | dose: 100.0 mg/kg/injection, schedule: Q04DX002 (ip), vehicle: saline with Tween-80 93 % of control

COCCOCCOCCOCCOCCOC
inactive: dose: 12.5 mg/kg/injection, schedule: Q01DX009 (ip), vehicle: saline with Tween-80 104 % of control | dose: 25.0 mg/kg/injection, schedule: Q01DX009 (ip), vehicle: saline with Tween-80 94 % of control | [1] 105 % of control

C(=N\Nc1nnc(N/N=C/C2CCCCC2)c2ccccc12)/C1CCCCC1
inactive: dose: 50.0 mg/kg/injection, schedule: Q01DX001 (ip), vehicle: saline 100 % of control

COC/C(C)=C/Br
inactive: dose: 100.0 mg/kg/injection, schedule: Q01DX009 (ip), vehicle: acetone 97 % of control | dose: 200.0 mg/kg/injection, schedule: Q01DX009 (ip), vehicle: acetone 94 % of control | dose: 400.0 mg/kg/injection, schedule: Q01DX009 (ip), vehicle: acetone 94 % of control

CC(=O)C1CCC2(C)CCC(=O)C(C)C2C1 (stereo unspecified)
inactive: dose: 50.0 mg/kg/injection, schedule: Q04DX003 (ip), vehicle: Klucel (hydroxypropylcellulose) (HPC) 107 % of control | dose: 100.0 mg/kg/injection, schedule: Q01DX001 (ip), vehicle: Klucel (hydroxypropylcellulose) (HPC) 104 % of control | [5] 100 % of control | [6] 104 % of control | dose: 200.0 mg/kg/injection, schedule: Q01DX001 (ip), vehicle: Klucel (hydroxypropylcellulose) (HPC) 106 % of control | dose: 200.0 mg/kg/injection, schedule: Q01DX009 (ip), vehicle: Klucel (hydroxypropylcellulose) (HPC) 100 % of control | [7] 101 % of control | dose: 400.0 mg/kg/injection, schedule: Q01DX001 (ip), vehicle: Klucel (hydroxypropylcellulose) (HPC) 101 % of control | dose: 400.0 mg/kg/injection, schedule: Q01DX009 (ip), vehicle: Klucel (hydroxypropylcellulose) (HPC) 98 % of control | [8] 101 % of control

Cc1ccc(S(=O)(=O)CC(=O)c2ccccc2)cc1
inactive: [6] 100 % of control | [7] 107 % of control | [8] 102 % of control

Cc1ccc(S(=O)(=O)Oc2cc([N+](=O)[O-])ccc2N)cc1
inactive: [9] 103 % of control | [10] 105 % of control | [11] 100 % of control

CCOC(=O)C1=CC(=O)C(C(=O)OCC)=CC1=O
inactive: dose: 100.0 mg/kg/injection, schedule: Q01DX001 (ip), vehicle: carboxymethylcellulose (CMC) 98 % of control | dose: 200.0 mg/kg/injection, schedule: Q01DX001 (ip), vehicle: carboxymethylcellulose (CMC) 98 % of control | dose: 400.0 mg/kg/injection, schedule: Q01DX001 (ip), vehicle: carboxymethylcellulose (CMC) 104 % of control

Cc1cc(OCCO)ccc1Cl
inactive: [12] 108 % of control | [13] 108 % of control | [14] 108 % of control

COC(=O)C(CCl)NC(=O)c1ccccc1 (stereo unspecified)
inactive: dose: 50.0 mg/kg/injection, schedule: Q01DX009 (ip), vehicle: saline 105 % of control | [9] 90 % of control | [6] 102 % of control | [10] 95 % of control | [7] 96 % of control

CN1C(CCl)Nc2cc(Cl)c(S(N)(=O)=O)cc2S1(=O)=O (stereo unspecified)
inactive: [15] 95 % of control | [16] 90 % of control | [17] 96 % of control

O=C(Nc1ccccn1)Nc1cccc2ccccc12
inactive: [12] 103 % of control | [13] 97 % of control | [14] 87 % of control

COC1(c2ccc(Br)cc2)OC1(C)C (stereo unspecified)
inactive: dose: 25.0 mg/kg/injection, schedule: Q01DX009 (ip), vehicle: water 95 % of control | dose: 50.0 mg/kg/injection, schedule: Q01DX009 (ip), vehicle: water 101 % of control | dose: 100.0 mg/kg/injection, schedule: Q01DX009 (ip), vehicle: water 106 % of control | dose: 200.0 mg/kg/injection, schedule: Q01DX009 (ip), vehicle: water 107 % of control | dose: 400.0 mg/kg/injection, schedule: Q01DX009 (ip), vehicle: water 101 % of control

Clc1c(C(Cl)(Cl)Cl)nc2ccccc2c1Br
inactive: dose: 6.25 mg/kg/injection, schedule: Q01DX009 (ip), vehicle: Klucel (hydroxypropylcellulose) (HPC) 101 % of control | dose: 12.5 mg/kg/injection, schedule: Q01DX009 (ip), vehicle: Klucel (hydroxypropylcellulose) (HPC) 97 % of control | [18] 97 % of control

Cc1cccc(C)c1NC(=O)Oc1cccc2ccccc12
inactive: [9] 97 % of control | dose: 100.0 mg/kg/injection, schedule: Q04DX003 (ip), vehicle: saline 93 % of control | [10] 95 % of control | dose: 200.0 mg/kg/injection, schedule: Q04DX003 (ip), vehicle: saline 98 % of control | [11] 103 % of control | dose: 400.0 mg/kg/injection, schedule: Q04DX003 (ip), vehicle: saline 100 % of control

CC(=O)N/N=C(/C)C(O)(c1ccccc1)c1ccccc1
inactive: [2] 95 % of control | [3] 100 % of control | [19] 92 % of control | [4] 101 % of control | dose: 400.0 mg/kg/injection, schedule: Q01DX009 (ip), vehicle: saline with Tween-80 97 % of control | dose: 400.0 mg/kg/injection, schedule: Q04DX003 (ip), vehicle: saline with Tween-80 101 % of control

CC(=O)SCN1C(=O)C2C3CCC(O3)C2C1=O (stereo unspecified)
inactive: [12] 91 % of control | [13] 91 % of control | [14] 105 % of control

c1ccc([Si](OO[Si](c2ccccc2)(c2ccccc2)c2ccccc2)(c2ccccc2)c2ccccc2)cc1
inactive: [2] 86 % of control | [19] 87 % of control

CN(C)CCCC1(O)c2ccccc2Sc2cc(Cl)ccc21 (stereo unspecified)
inactive: [18] 91 % of control | [20] 96 % of control | dose: 50.0 mg/kg/injection, schedule: Q01DX009 (ip), vehicle: Klucel (hydroxypropylcellulose) (HPC) 91 % of control | [21] 99 % of control | [5] 100 % of control | [12] 101 % of control | dose: 150.0 mg/kg/injection, schedule: Q01DX009 (ip), vehicle: Klucel (hydroxypropylcellulose) (HPC) 97 % of control | dose: 225.0 mg/kg/injection, schedule: Q01DX009 (ip), vehicle: Klucel (hydroxypropylcellulose) (HPC) 90 % of control

OCC1OC(n2ccc3c([Se]Cc4ccccc4)ncnc32)C(O)C1O (stereo unspecified)
inactive: dose: 0.78 mg/kg/injection, schedule: Q01DX009 (ip), vehicle: saline 101 % of control | dose: 1.56 mg/kg/injection, schedule: Q01DX009 (ip), vehicle: saline 105 % of control | dose: 3.12 mg/kg/injection, schedule: Q01DX009 (ip), vehicle: saline 109 % of control | dose: 6.25 mg/kg/injection, schedule: Q01DX009 (ip), vehicle: saline 86 % of control | dose: 12.5 mg/kg/injection, schedule: Q01DX005 (ip), vehicle: saline 100 % of control | dose: 25.0 mg/kg/injection, schedule: Q01DX005 (ip), vehicle: saline 101 % of control

NC(CCC(=O)O)C(=O)NC(CC(=O)O)C(=O)O (stereo not drawn) (H-Glu-Asp-OH; configuration not given here)
inactive: dose: 12.5 mg/kg/injection, schedule: Q04DX002 (ip), vehicle: Klucel (hydroxypropylcellulose) (HPC) 90 % of control | [20] 105 % of control | [21] 98 % of control | [12] 94 % of control

CCCCCCCCCCCC(=O)NC(=S)Nc1cccc2ccccc12
inactive: [6] 90 % of control | [7] 97 % of control

NC(=O)N1CCCCC1
inactive: [15] 102 % of control | [16] 98 % of control | [17] 102 % of control
